# From PubChem BioAssay (NCI)
#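 The compound was tested at five concentrations on cells cultured in 96-well plates, with a 48-hour exposure period. GI50 marks 50% less growth. Definition used: TGI = concentration required for complete inhibition of growth.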
# Assays:
# Assay in all cases: inhibition of tumour cell growth, NCI panel, 48 h
# 786-0 renal = test system: 786-0 renal
# A498 renal = test system: A498 renal
# A549 NSCLC = test system: A549 NSCLC
# ACHN renal = test system: ACHN renal
# BT-549 breast = test system: BT-549 breast
# CAKI-1 renal = test system: CAKI-1 renal
# CCRF-CEM leukemia = test system: CCRF-CEM leukemia
# COLO 205 colon = test system: COLO 205 colon
# DU-145 prostate = test system: DU-145 prostate
# EKVX NSCLC = test system: EKVX NSCLC
# HCC-2998 colon = test system: HCC-2998 colon
# HCT-116 colon = test system: HCT-116 colon
# HCT-15 colon = test system: HCT-15 colon
# HL-60(TB) leukemia = test system: HL-60(TB) leukemia
# HOP-62 NSCLC = test system: HOP-62 NSCLC
# HOP-92 NSCLC = test system: HOP-92 NSCLC
# HS 578T breast = test system: HS 578T breast
# HT29 colon = test system: HT29 colon
# IGROV1 ovarian = test system: IGROV1 ovarian
# K-562 leukemia = test system: K-562 leukemia
# KM12 colon = test system: KM12 colon
# LOX IMVI melanoma = test system: LOX IMVI melanoma
# M14 melanoma = test system: M14 melanoma
# MALME-3M melanoma = test system: MALME-3M melanoma
# MCF7 breast = test system: MCF7 breast
# MDA-MB-231 breast = test system: MDA-MB-231 breast
# MDA-MB-435 = test system: MDA-MB-435
# MOLT-4 leukemia = test system: MOLT-4 leukemia
# NCI-H226 lung = test system: NCI-H226 lung
# NCI-H23 lung = test system: NCI-H23 lung
# NCI-H460 lung = test system: NCI-H460 lung
# NCI-H522 lung = test system: NCI-H522 lung
# NCI/ADR-RES ovarian = test system: NCI/ADR-RES ovarian
# OVCAR-3 ovarian = test system: OVCAR-3 ovarian
# OVCAR-4 ovarian = test system: OVCAR-4 ovarian
# OVCAR-5 ovarian = test system: OVCAR-5 ovarian
# OVCAR-8 ovarian = test system: OVCAR-8 ovarian
# PC-3 prostate = test system: PC-3 prostate
# RPMI-8226 leukemia = test system: RPMI-8226 leukemia
# RXF 393 renal = test system: RXF 393 renal
# SF-268 CNS = test system: SF-268 CNS
# SF-295 CNS = test system: SF-295 CNS
# SF-539 CNS = test system: SF-539 CNS
# SK-MEL-2 melanoma = test system: SK-MEL-2 melanoma
# SK-MEL-28 melanoma = test system: SK-MEL-28 melanoma
# SK-MEL-5 melanoma = test system: SK-MEL-5 melanoma
# SK-OV-3 ovarian = test system: SK-OV-3 ovarian
# SN12C renal = test system: SN12C renal
# SNB-19 CNS = test system: SNB-19 CNS
# SNB-75 CNS = test system: SNB-75 CNS
# SR leukemia = test system: SR leukemia
# SW-620 colon = test system: SW-620 colon
# T-47D breast = test system: T-47D breast
# TK-10 renal = test system: TK-10 renal
# U251 CNS = test system: U251 CNS
# UACC-257 melanoma = test system: UACC-257 melanoma
# UACC-62 melanoma = test system: UACC-62 melanoma
# UO-31 renal = test system: UO-31 renal
compound,measurement,setting,value
Cc1[nH]c(C(=O)Nc2ccc(S(=O)(=O)N3CCCCC3)cc2OCCOCCOCCOCCOCCOCCOCCOCCOCCOc2cc(S(=O)(=O)N3CCCCC3)ccc2NC(=O)c2[nH]c(C)c3c2CCCCC3=O)c2c1C(=O)CCCC2,GI50,786-0 renal,1690 nM
same,TGI,786-0 renal,> 100 µM
same,GI50,A498 renal,1210 nM
same,GI50,A549 NSCLC,2390 nM
same,TGI,A549 NSCLC,> 100 µM
same,GI50,ACHN renal,17.4 µM
same,TGI,ACHN renal,> 100 µM
same,GI50,BT-549 breast,911 nM
same,TGI,BT-549 breast,> 100 µM
same,GI50,CAKI-1 renal,841 nM
same,TGI,CAKI-1 renal,> 100 µM
same,GI50,CCRF-CEM leukemia,1290 nM
same,TGI,CCRF-CEM leukemia,> 100 µM
same,GI50,COLO 205 colon,1170 nM
same,TGI,COLO 205 colon,> 100 µM
same,GI50,DU-145 prostate,4.99 µM
same,TGI,DU-145 prostate,> 100 µM
same,GI50,EKVX NSCLC,2970 nM
same,TGI,EKVX NSCLC,> 100 µM
same,GI50,HCC-2998 colon,296 nM
same,TGI,HCC-2998 colon,1120 nM
same,GI50,HCT-116 colon,538 nM
same,TGI,HCT-116 colon,4.41 µM
same,GI50,HCT-15 colon,12.9 µM
same,TGI,HCT-15 colon,> 100 µM
same,GI50,HL-60(TB) leukemia,108 nM
same,GI50,HOP-62 NSCLC,1110 nM
same,TGI,HOP-62 NSCLC,> 100 µM
same,GI50,HOP-92 NSCLC,433 nM
same,TGI,HOP-92 NSCLC,> 100 µM
same,GI50,HS 578T breast,375 nM
same,TGI,HS 578T breast,> 21.9 µM
same,GI50,HT29 colon,648 nM
same,TGI,HT29 colon,> 19.8 µM
same,GI50,IGROV1 ovarian,480 nM
same,GI50,K-562 leukemia,435 nM
same,TGI,K-562 leukemia,> 100 µM
same,GI50,KM12 colon,1680 nM
same,TGI,KM12 colon,> 100 µM
same,GI50,LOX IMVI melanoma,169 nM
same,TGI,LOX IMVI melanoma,639 nM
same,GI50,M14 melanoma,1010 nM
same,TGI,M14 melanoma,> 100 µM
same,GI50,MALME-3M melanoma,909 nM
same,TGI,MALME-3M melanoma,> 23.5 µM
same,GI50,MCF7 breast,95 nM
same,TGI,MCF7 breast,> 100 µM
same,GI50,MDA-MB-231 breast,776 nM
same,TGI,MDA-MB-231 breast,> 100 µM
same,GI50,MDA-MB-435,766 nM
same,TGI,MDA-MB-435,> 100 µM
same,GI50,MOLT-4 leukemia,861 nM
same,TGI,MOLT-4 leukemia,> 32.8 µM
same,GI50,NCI-H226 lung,542 nM
same,TGI,NCI-H226 lung,8.73 µM
same,GI50,NCI-H23 lung,2380 nM
same,TGI,NCI-H23 lung,> 100 µM
same,GI50,NCI-H460 lung,1770 nM
same,TGI,NCI-H460 lung,> 100 µM
same,GI50,NCI-H522 lung,190 nM
same,TGI,NCI-H522 lung,1210 nM
same,GI50,NCI/ADR-RES ovarian,> 100 µM
same,TGI,NCI/ADR-RES ovarian,> 100 µM
same,GI50,OVCAR-3 ovarian,483 nM
same,GI50,OVCAR-4 ovarian,909 nM
same,TGI,OVCAR-4 ovarian,> 29.7 µM
same,GI50,OVCAR-5 ovarian,3.26 µM
same,TGI,OVCAR-5 ovarian,> 100 µM
same,GI50,OVCAR-8 ovarian,1670 nM
same,TGI,OVCAR-8 ovarian,> 100 µM
same,GI50,PC-3 prostate,1090 nM
same,TGI,PC-3 prostate,> 100 µM
same,GI50,RPMI-8226 leukemia,325 nM
same,GI50,RXF 393 renal,1260 nM
same,TGI,RXF 393 renal,> 100 µM
same,GI50,SF-268 CNS,2290 nM
same,TGI,SF-268 CNS,> 100 µM
same,GI50,SF-295 CNS,2830 nM
same,TGI,SF-295 CNS,> 100 µM
same,GI50,SF-539 CNS,599 nM
same,TGI,SF-539 CNS,> 100 µM
same,GI50,SK-MEL-2 melanoma,768 nM
same,GI50,SK-MEL-28 melanoma,1590 nM
same,TGI,SK-MEL-28 melanoma,> 100 µM
same,GI50,SK-MEL-5 melanoma,3.92 µM
same,TGI,SK-MEL-5 melanoma,> 89.8 µM
same,GI50,SK-OV-3 ovarian,286 nM
same,TGI,SK-OV-3 ovarian,806 nM
same,GI50,SN12C renal,1480 nM
same,TGI,SN12C renal,> 100 µM
same,GI50,SNB-19 CNS,1020 nM
same,TGI,SNB-19 CNS,> 100 µM
same,GI50,SNB-75 CNS,78.8 nM
same,TGI,SNB-75 CNS,1180 nM
same,GI50,SR leukemia,107 nM
same,TGI,SR leukemia,> 32.5 µM
same,GI50,SW-620 colon,2050 nM
same,TGI,SW-620 colon,> 100 µM
same,GI50,T-47D breast,489 nM
same,TGI,T-47D breast,> 100 µM
same,GI50,TK-10 renal,2050 nM
same,TGI,TK-10 renal,> 100 µM
same,GI50,U251 CNS,1400 nM
same,TGI,U251 CNS,> 100 µM
same,GI50,UACC-257 melanoma,944 nM
same,GI50,UACC-62 melanoma,461 nM
same,TGI,UACC-62 melanoma,3.71 µM
same,GI50,UO-31 renal,4.83 µM
same,TGI,UO-31 renal,> 100 µM
